Experimental data: ChEMBL document CHEMBL5038625, “Application of the dual-tail approach for the design and synthesis of novel Thiopyrimidine-Benzenesulfonamide hybrids as selective carbonic anhydrase inhibitors” (Eur J Med Chem, 2022)

Key:
Carbonic anhydrase 9 = Carbonic anhydrase 9 (Homo sapiens, UniProt Q16790); assay: Inhibition of human CA9 preincubated for 15 mins by phenol red dye based stopped flow CO2 hydration assay
SF-539 = assay: Antiproliferative activity against human SF-539 cells assessed as cell growth inhibition at 10 uM incubated for 24 hrs by sulforhodamine B assay; type: functional; details: read-out: GI
HOP-92 = assay: Antiproliferative activity against human HOP-92 cells assessed as cell growth inhibition at 10 uM incubated for 24 hrs by sulforhodamine B assay; type: functional; details: read-out: GI
NCI-H226 = assay: Antiproliferative activity against human NCI-H226 cells assessed as cell growth inhibition at 10 uM incubated for 24 hrs by sulforhodamine B assay; type: functional; details: read-out: GI
NCI-H23 = assay: Antiproliferative activity against human NCI-H23 cells assessed as cell growth inhibition at 10 uM incubated for 24 hrs by sulforhodamine B assay; type: functional; details: read-out: GI
UACC-62 = assay: Antiproliferative activity against human UACC-62 cells assessed as cell growth inhibition at 10 uM incubated for 24 hrs by sulforhodamine B assay; type: functional; details: read-out: GI
OVCAR-3 = assay: Antiproliferative activity against human OVCAR-3 cells assessed as cell growth inhibition at 10 uM incubated for 24 hrs by sulforhodamine B assay; type: functional; details: read-out: GI
CAKI-1 = assay: Antiproliferative activity against human CAKI-1 cells assessed as cell growth inhibition at 10 uM incubated for 24 hrs by sulforhodamine B assay; type: functional; details: read-out: GI
RXF 393 = assay: Antiproliferative activity against human RXF 393 cells assessed as cell growth inhibition at 10 uM incubated for 24 hrs by sulforhodamine B assay; type: functional; details: read-out: GI
UO-31 = assay: Antiproliferative activity against human UO-31 cells assessed as cell growth inhibition at 10 uM incubated for 24 hrs by sulforhodamine B assay; type: functional; details: read-out: GI
MCF7 = assay: Antiproliferative activity against human MCF7 cells assessed as cell growth inhibition at 10 uM incubated for 24 hrs by sulforhodamine B assay; type: functional; details: read-out: GI

Question: With `CC(C)c1nc(SCC(=O)c2ccc(Br)cc2)nc(Nc2cccc(S(N)(=O)=O)c2)c1C#N` as the compound, how does the Ki (Carbonic anhydrase 9) read?
Answer: 97.4 nM

Question: What about the inhibition of growth at 10 µM (SF-539) of the same compound?
Answer: 5.74%

Question: And the inhibition of growth at 10 µM (HOP-92)?
Answer: 15%

Question: What about the inhibition of growth at 10 µM (NCI-H226) of the same compound?
Answer: 6.88%

Question: And the inhibition of growth at 10 µM (NCI-H23)?
Answer: 5.54%

Question: What about the inhibition of growth at 10 µM (UACC-62) of the same compound?
Answer: 8.44%

Question: What about the inhibition of growth at 10 µM (OVCAR-3) of the same compound?
Answer: 6.91%

Question: What about the inhibition of growth at 10 µM (CAKI-1) of the same compound?
Answer: 12.7%

Question: What about the inhibition of growth at 10 µM (RXF 393) of the same compound?
Answer: 8.85%

Question: And the inhibition of growth at 10 µM (UO-31)?
Answer: 20.9%

Question: And the inhibition of growth at 10 µM (MCF7)?
Answer: 12.4%
